Data published in patent US20250326749A1, “COMPOUNDS, COMPOSITIONS, AND METHODS OF USING THEREOF” (Sionna Therapeutics Inc., priority 2022, published 2025).

molecular target: T1, ΔF508-CFTR (Homo sapiens, UniProt P13569, DEL508-508); test: ΔF508-CFTR-HRP trafficking assay (cell surface expression of ΔF508-CFTR); format: cell-based; details: CFSMEo- cells transiently transfected with ΔF508-CFTR-HRP; test agent 3 μM, 48 h; HRP chemiluminescence
T1 construct: expressed in transfected cells; host or cells: CFSMEo- (human CF submucosal gland epithelial cells, ΔF508/Q2X), transiently transfected by nucleofection
Procedure, shortened: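 Surface-expressed ΔF508-CFTR measured via extracellular HRP tag: cell-impermeable chemiluminescent substrate, 5 min, signal normalized to 0.3% DMSO vehicle.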

T1 sequence (P13569 with tags, fused parts or gaps DEL508-508): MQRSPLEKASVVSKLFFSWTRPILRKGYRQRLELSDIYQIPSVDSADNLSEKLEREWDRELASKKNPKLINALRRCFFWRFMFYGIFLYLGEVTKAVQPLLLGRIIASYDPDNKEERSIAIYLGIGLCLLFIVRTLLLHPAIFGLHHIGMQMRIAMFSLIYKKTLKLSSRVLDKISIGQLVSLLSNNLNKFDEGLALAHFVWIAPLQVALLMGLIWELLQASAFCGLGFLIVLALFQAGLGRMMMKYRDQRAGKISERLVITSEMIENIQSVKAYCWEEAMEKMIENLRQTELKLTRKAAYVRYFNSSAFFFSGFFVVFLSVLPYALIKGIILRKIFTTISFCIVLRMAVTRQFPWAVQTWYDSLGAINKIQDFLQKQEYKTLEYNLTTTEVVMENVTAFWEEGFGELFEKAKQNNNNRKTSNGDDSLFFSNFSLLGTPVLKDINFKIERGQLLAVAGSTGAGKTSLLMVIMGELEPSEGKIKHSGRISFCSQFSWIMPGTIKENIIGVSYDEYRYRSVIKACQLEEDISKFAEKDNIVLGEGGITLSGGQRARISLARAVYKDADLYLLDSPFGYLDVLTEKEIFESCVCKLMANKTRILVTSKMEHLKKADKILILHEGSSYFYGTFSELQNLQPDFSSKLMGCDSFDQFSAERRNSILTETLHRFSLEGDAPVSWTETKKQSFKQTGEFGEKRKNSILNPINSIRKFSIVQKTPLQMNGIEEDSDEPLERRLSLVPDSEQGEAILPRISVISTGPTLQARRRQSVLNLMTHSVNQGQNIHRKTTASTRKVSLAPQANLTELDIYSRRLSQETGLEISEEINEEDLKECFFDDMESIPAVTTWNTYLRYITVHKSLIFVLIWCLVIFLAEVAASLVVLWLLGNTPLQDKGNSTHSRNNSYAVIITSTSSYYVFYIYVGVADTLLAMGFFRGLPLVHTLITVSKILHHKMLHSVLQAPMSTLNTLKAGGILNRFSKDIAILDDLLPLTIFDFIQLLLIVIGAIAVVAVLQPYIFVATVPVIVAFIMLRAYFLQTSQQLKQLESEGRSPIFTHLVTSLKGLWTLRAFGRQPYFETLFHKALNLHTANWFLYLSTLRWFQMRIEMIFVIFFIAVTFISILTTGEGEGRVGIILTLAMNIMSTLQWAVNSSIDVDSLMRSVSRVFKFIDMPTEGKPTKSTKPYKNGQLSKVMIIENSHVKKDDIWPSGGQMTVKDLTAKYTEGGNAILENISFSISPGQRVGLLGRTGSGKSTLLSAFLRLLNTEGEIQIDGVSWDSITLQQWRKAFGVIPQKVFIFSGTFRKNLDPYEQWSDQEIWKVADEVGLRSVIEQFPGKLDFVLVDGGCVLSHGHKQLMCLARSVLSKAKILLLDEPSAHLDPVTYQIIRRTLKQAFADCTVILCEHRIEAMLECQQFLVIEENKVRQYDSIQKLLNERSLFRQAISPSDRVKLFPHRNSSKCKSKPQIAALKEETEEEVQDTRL

Structure (SMILES) | RLUs: ΔF508-CFTR-HRP trafficking data normalized to the vehicle treated control (0.3% DMSO)
C[C@H](Oc1cncc(-n2nc(C(F)(F)F)c3c2[C@@H](Oc2ccc(C(=O)O)cc2)CCC3)c1)c1cc2c(cc1F)OC(F)(F)O2 (single isomer, unassigned) [Example 36e] | A (RLU 5.0 μM-10 μM)
C[C@H](Oc1nc(-n2nc(C(F)(F)F)c3c2[C@@H](Oc2ccc(C(=O)O)cc2)CCC3)ccc1F)c1ccc2c(c1)OC(F)(F)O2 (single isomer, unassigned) [Example 36f] | A (RLU 5.0 μM-10 μM)
C[C@H](Oc1cccc(-n2nc(C(F)(F)F)c3c2[C@@H](Oc2ccc(C(=O)O)cc2)CCC3)c1)c1cc2c(cc1F)OC(F)(F)O2 (single isomer, unassigned) [Example 36g] | B (RLU 3.5 μM-5.0 μM)
C[C@H](Oc1cnnc(-n2nc(C(F)(F)F)c3c2[C@@H](Oc2ccc(C(=O)O)cc2)CCC3)c1)c1ccc2c(c1)OC(F)(F)O2 (single isomer, unassigned) [Example 36h] | B (RLU 3.5 μM-5.0 μM)
C[C@H](Oc1cc(-n2nc(C(F)(F)F)c3c2[C@@H](Oc2ccc(C(=O)O)cc2)CCC3)ncc1F)c1ccc2c(c1)OC(F)(F)O2 (single isomer, unassigned) [Example 36i] | A (RLU 5.0 μM-10 μM)
C[C@H](Oc1cc(-n2nc(C(F)(F)F)c3c2[C@@H](Oc2ccc(C(=O)O)cc2)CCC3)ccc1F)c1cc2c(cc1F)OC(F)(F)O2 (single isomer, unassigned) [Example 36j] | C (RLU 0.0 μM-3.5 μM)
CC[C@H](Oc1cc(-n2nc(C(F)(F)F)c3c2[C@@H](Oc2ccc(C(=O)O)cc2)CCC3)ccn1)c1ccc2c(c1)OC(F)(F)O2 (single isomer, unassigned) [Example 36k] | C (RLU 0.0 μM-3.5 μM)
C[C@H](Oc1cccc(-n2nc(C(F)(F)F)c3c2[C@@H](Oc2ccc(C(=O)O)cc2)CCC3)n1)c1cc2c(cc1F)OC(F)(F)O2 (single isomer, unassigned) [Example 36l] | A (RLU 5.0 μM-10 μM)
C[C@H](Oc1nc(-n2nc(C(F)(F)F)c3c2[C@@H](Oc2ccc(C(=O)O)cc2)CCC3)ccc1F)c1cc2c(cc1F)OC(F)(F)O2 (single isomer, unassigned) [Example 36m] | A (RLU 5.0 μM-10 μM)
C[C@H](Oc1cccc(-n2nc(C(F)(F)F)c3c2C(OC24CC(C(=O)O)(C2)C4)CCC3)c1)c1ccc2c(c1)OC(F)(F)O2 (single isomer, unassigned) [Example 42] | A (RLU 5.0 μM-10 μM)
C[C@H](Oc1cncc(-n2nc(C(F)(F)F)c3c2[C@@H](OC24CCC(C(=O)O)(CC2)CC4)CCC3)c1)c1ccc2c(c1)OC(F)(F)O2 (single isomer, unassigned) [Example 57] | B (RLU 3.5 μM-5.0 μM)
C[C@H](Oc1cncc(-n2nc(C(F)(F)F)c3c2[C@H](OC24CCC(C(=O)O)(CC2)CC4)CCC3)c1)c1ccc2c(c1)OC(F)(F)O2 (single isomer, unassigned) [Example 58] | B (RLU 3.5 μM-5.0 μM)
C[C@H](Oc1cc(-n2nc(C(F)(F)F)c3c2[C@@H](OC24CCC(C(=O)O)(CC2)CC4)CCC3)cnc1F)c1ccc2c(c1)OC(F)(F)O2 (single isomer, unassigned) [Example 59] | C (RLU 0.0 μM-3.5 μM)
C[C@H](Oc1cc(-n2nc(C(F)(F)F)c3c2[C@H](OC24CCC(C(=O)O)(CC2)CC4)CCC3)cnc1F)c1ccc2c(c1)OC(F)(F)O2 (single isomer, unassigned) [Example 60] | C (RLU 0.0 μM-3.5 μM)
C[C@H](Oc1cc(-n2nc(C(F)(F)F)c3c2[C@@H](Oc2ccc(C(=O)O)cc2)CCC3)cnn1)c1ccc2c(c1)OC(F)(F)O2 (single isomer, unassigned) [Example 61] | C (RLU 0.0 μM-3.5 μM)
C[C@H](Oc1cc(-n2nc(C(F)(F)F)c3c2[C@@H](OC24CC(C(=O)O)(C2)C4)CCC3)cnn1)c1ccc2c(c1)OC(F)(F)O2 (single isomer, unassigned) [Example 62] | C (RLU 0.0 μM-3.5 μM)

The next lines start with the values.

RLUs: ΔF508-CFTR-HRP trafficking data normalized to the vehicle treated control (0.3% DMSO) | Structure (SMILES)
A (RLU 5.0 μM-10 μM) | C[C@@H](Oc1cc(-n2nc(C(F)(F)F)c3c2C(O[C@H]2CC[C@H](C(=O)O)CC2)CCC3)ccn1)c1ccc2c(c1)OC(F)(F)O2 (single isomer, unassigned) [Example 43]
A (RLU 5.0 μM-10 μM) | C[C@H](Oc1cc(-n2nc(C(F)(F)F)c3c2C(O[C@H]2CC[C@H](C(=O)O)CC2)CCC3)ccn1)c1ccc2c(c1)OC(F)(F)O2 (single isomer, unassigned) [Example 44]
B (RLU 3.5 μM-5.0 μM) | C[C@@H](Oc1cc(-n2nc(C(F)(F)F)c3c2C(O[C@H]2CC[C@H](C(=O)O)CC2)CCC3)ccn1)c1cc2c(cn1)OC(F)(F)O2 (single isomer, unassigned) [Example 47]
C (RLU 0.0 μM-3.5 μM) | C[C@H](Oc1cc(-n2nc(C(F)(F)F)c3c2C(O[C@H]2CC[C@H](C(=O)O)CC2)CCC3)ccn1)c1cc2c(cn1)OC(F)(F)O2 (single isomer, unassigned) [Example 48]
C (RLU 0.0 μM-3.5 μM) | C[C@H](Oc1cc(-n2nc(C(F)(F)F)c3c2[C@@H](O[C@H]2CC[C@H](C(=O)O)CC2)CCC3)cnn1)c1ccc2c(c1)OC(F)(F)O2 (single isomer, unassigned) [Example 55]
B (RLU 3.5 μM-5.0 μM) | C[C@H](Oc1cc(-n2nc(C(F)(F)F)c3c2[C@H](O[C@H]2CC[C@H](C(=O)O)CC2)CCC3)cnn1)c1ccc2c(c1)OC(F)(F)O2 (single isomer, unassigned) [Example 56]
B (RLU 3.5 μM-5.0 μM) | C[C@H](Oc1cc(-n2nc(C(F)(F)F)c3c2[C@H](OC24CC(C(=O)O)(C2)C4)CCC3)cnn1)c1ccc2c(c1)OC(F)(F)O2 (single isomer, unassigned) [Example 63]
A (RLU 5.0 μM-10 μM) | C[C@H](Oc1cc(-n2nc(C(F)(F)F)c3c2[C@@H](OC24CCC(C(=O)O)(CC2)CC4)CCC3)ccn1)c1ccc2c(c1)OC(F)(F)O2 (single isomer, unassigned) [Example 64]
C (RLU 0.0 μM-3.5 μM) | C[C@H](Oc1cc(-n2nc(C(F)(F)F)c3c2[C@H](OC24CCC(C(=O)O)(CC2)CC4)CCC3)ccn1)c1ccc2c(c1)OC(F)(F)O2 (single isomer, unassigned) [Example 65]
A (RLU 5.0 μM-10 μM) | C[C@H](Oc1cncc(-n2nc(C(F)(F)F)c3c2[C@@H](O[C@H]2CC[C@H](C(=O)O)CC2)CCC3)c1)c1ccc2c(c1)OC(F)(F)O2 (single isomer, unassigned) [Example 66]
